PubChem BioAssay (NCI)
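GI50: concentration for 50% inhibition of growth. TGI: total growth inhibition.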

Assays:
Assay in all cases: NCI tumour cell line growth inhibition, 384-well format
[1] = system: 786-0 renal
[2] = system: A498 renal
[3] = system: A549 NSCLC
[4] = system: ACHN renal
[5] = system: BT-549 breast
[6] = system: CAKI-1 renal
[7] = system: CCRF-CEM leukemia
[8] = system: COLO 205 colon
[9] = system: DU-145 prostate
[10] = system: EKVX NSCLC
[11] = system: HCC-2998 colon
[12] = system: HCT-116 colon
[13] = system: HCT-15 colon
[14] = system: HL-60(TB) leukemia
[15] = system: HOP-62 NSCLC
[16] = system: HOP-92 NSCLC
[17] = system: HS 578T breast
[18] = system: HT29 colon
[19] = system: IGROV1 ovarian
[20] = system: K-562 leukemia
[21] = system: KM12 colon
[22] = system: LOX IMVI melanoma
[23] = system: M14 melanoma
[24] = system: MALME-3M melanoma
[25] = system: MCF7 breast
[26] = system: MDA-MB-231 breast
[27] = system: MDA-MB-435 melanoma
[28] = system: MDA-MB-468 breast
[29] = system: MOLT-4 leukemia
[30] = system: NCI-H226 lung
[31] = system: NCI-H23 lung
[32] = system: NCI-H322M lung
[33] = system: NCI-H460 NSCLC
[34] = system: NCI-H522 lung
[35] = system: NCI/ADR-RES ovarian
[36] = system: OVCAR-3 ovarian
[37] = system: OVCAR-4 ovarian
[38] = system: OVCAR-5 ovarian
[39] = system: OVCAR-8 ovarian
[40] = system: PC-3 prostate
[41] = system: RPMI-8226 leukemia
[42] = system: RXF 393 renal
[43] = system: SF-268 CNS
[44] = system: SF-295 CNS
[45] = system: SF-539 CNS
[46] = system: SK-MEL-2 melanoma
[47] = system: SK-MEL-28 melanoma
[48] = system: SK-MEL-5 melanoma
[49] = system: SK-OV-3 ovarian
[50] = system: SN12C renal
[51] = system: SNB-19 CNS
[52] = system: SNB-75 CNS
[53] = system: SW-620 colon
[54] = system: T-47D breast
[55] = system: TK-10 renal
[56] = system: U251 glioblastoma
[57] = system: UACC-257 melanoma
[58] = system: UACC-62 melanoma
[59] = system: UO-31 renal

## Cc1ccccc1C(C(=O)NC1CCCCC1)N(C(=O)CNc1ncccc1F)c1cccc(F)c1 (stereo not drawn)
[1]
  GI50: > 100 µM
  TGI: > 100 µM
[2]
  GI50: > 100 µM
  TGI: > 100 µM
[3]
  GI50: > 100 µM
  TGI: > 100 µM
[4]
  GI50: > 100 µM
  TGI: > 100 µM
[5]
  GI50: > 100 µM
  TGI: > 100 µM
[6]
  GI50: > 100 µM
  TGI: > 100 µM
[7]
  GI50: > 100 µM
  TGI: > 100 µM
[8]
  GI50: > 100 µM
  TGI: > 100 µM
[9]
  GI50: > 100 µM
  TGI: > 100 µM
[10]
  GI50: > 100 µM
  TGI: > 100 µM
[11]
  GI50: > 100 µM
  TGI: > 100 µM
[12]
  GI50: > 100 µM
  TGI: > 100 µM
[13]
  GI50: > 100 µM
  TGI: > 100 µM
[14]
  GI50: > 100 µM
  TGI: > 100 µM
[15]
  GI50: > 100 µM
  TGI: > 100 µM
[16]
  GI50: > 100 µM
  TGI: > 100 µM
[17]
  GI50: > 100 µM
  TGI: > 100 µM
[18]
  GI50: > 100 µM
  TGI: > 100 µM
[19]
  GI50: > 100 µM
  TGI: > 100 µM
[20]
  GI50: > 100 µM
  TGI: > 100 µM
[21]
  GI50: > 100 µM
  TGI: > 100 µM
[22]
  GI50: > 100 µM
  TGI: > 100 µM
[23]
  GI50: > 100 µM
  TGI: > 100 µM
[24]
  GI50: > 100 µM
  TGI: > 100 µM
[25]
  GI50: > 100 µM
  TGI: > 100 µM
[26]
  GI50: > 100 µM
  TGI: > 100 µM
[27]
  GI50: > 100 µM
  TGI: > 100 µM
[28]
  GI50: > 100 µM
  TGI: > 100 µM
[29]
  GI50: > 100 µM
  TGI: > 100 µM
[30]
  GI50: > 100 µM
  TGI: > 100 µM
[31]
  GI50: > 100 µM
  TGI: > 100 µM
[32]
  GI50: > 100 µM
  TGI: > 100 µM
[33]
  GI50: > 100 µM
  TGI: > 100 µM
[34]
  GI50: > 100 µM
  TGI: > 100 µM
[35]
  GI50: > 100 µM
  TGI: > 100 µM
[36]
  GI50: > 100 µM
  TGI: > 100 µM
[37]
  GI50: > 100 µM
  TGI: > 100 µM
[38]
  GI50: > 100 µM
  TGI: > 100 µM
[39]
  GI50: > 100 µM
  TGI: > 100 µM
[40]
  GI50: > 100 µM
  TGI: > 100 µM
[41]
  GI50: > 100 µM
  TGI: > 100 µM
[42]
  GI50: > 100 µM
  TGI: > 100 µM
[43]
  GI50: > 100 µM
  TGI: > 100 µM
[44]
  GI50: > 100 µM
  TGI: > 100 µM
[45]
  GI50: > 100 µM
  TGI: > 100 µM
[46]
  GI50: > 100 µM
  TGI: > 100 µM
[47]
  GI50: > 100 µM
  TGI: > 100 µM
[48]
  GI50: > 100 µM
  TGI: > 100 µM
[49]
  GI50: > 100 µM
  TGI: > 100 µM
[50]
  GI50: > 100 µM
  TGI: > 100 µM
[51]
  GI50: > 100 µM
  TGI: > 100 µM
[52]
  GI50: > 100 µM
  TGI: > 100 µM
[53]
  GI50: > 100 µM
  TGI: > 100 µM
[54]
  GI50: > 100 µM
  TGI: > 100 µM
[55]
  GI50: > 100 µM
  TGI: > 100 µM
[56]
  GI50: > 100 µM
  TGI: > 100 µM
[57]
  GI50: > 100 µM
  TGI: > 100 µM
[58]
  GI50: > 100 µM
  TGI: > 100 µM
[59]
  GI50: > 100 µM
  TGI: > 100 µM
